Experimental data reported in patent publication US9663503B2, “5-[[4-[[morpholin-2-yl]methylamino]-5-(trifluoromethyl)-2-pyridyl]amino]pyrazine-2-carbonitrile and therapeutic uses thereof” (priority 2012, dated 2017).

Tests used:
[1] = in vivo; details: female Balb/c mice, 10 mg/kg iv and po
Description: Assay 5: Oral Bioavailability and Pharmacokinetics in Mice
All work was performed in accordance with the Home Office regulations under the Animals (Scientific Procedures) Act 1986 and according to UKCCCR guidelines for animal experimentation.
CHK1 inhibitor compounds were formulated in 10% DMSO, 1% Tween 20 and 89% sterile saline. Female Balb/c mice (Charles River UK Ltd, Margate, U.K.) were administered intravenously (iv) and orally (po) with 10 mg/kg of CHK1 inhibitor compound. Control animals received the vehicle alone. Groups of 3 mice were injected per timepoint. At 5, 15 and 30 minutes and 1, 2, 4, 6 and 24 hours after dosing, blood was collected by cardiac puncture with heparinised syringes from mice under anaesthesia (halothane/oxygen mix). Following centrifugation (9000×g, 2 minutes, 4° C.) plasma was frozen on dry ice and stored at −80° C. Tissues were excised, snap frozen in liquid nitrogen and stored at −80° C. Thawed plasma samples were extracted by protein precipitation using 3 volumes of methanol containing internal standard. […]. After centrifugation, supernatant was transferred for analysis. Extracted plasma samples were analysed by LC-MS-MS on an Agilent 1200 or 1290 LC coupled to an Agilent 6410 triple quadrupole mass spectrometer for the quantitation of the CHK1 inhibitor compound and internal standard. […]

[2] = system: HT29 cells; experiment: Cellular potency in Mitosis Inhibition Assay (MIA), checkpoint abrogation after etoposide; format: cell-based; details: versus Y-154
Description: Assay 2: Cellular Potency in Mitosis Inhibition Assay (MIA)
Checkpoint abrogation by CHK1 kinase function inhibitors in combination with genotoxic agents was assessed using a europium based ELISA assay designed to quantify the number of cells trapped in mitosis after treatment with a genotoxic agent (to induce G2 arrest) followed by a CHK1 inhibitor test compound in combination with nocodazole to abrogate this arrest. HT29 cells were seeded at 10^4 cells per well into 96-well plates in a volume of 160 μL and left to attach for 36 hours. […] After genotoxic drug exposure, the medium was removed and replaced with fresh medium (160 μL). […] CHK1 inhibitor test compounds were added in 40 μL aliquots using quadruplicate wells for each concentration. After 21 hours exposure, the medium was removed and cells were fixed in 4% formaldehyde in phosphate buffered saline (PBS, pH 7.4, pre-cooled to 4° C.) for 30 minutes at 4° C., followed by 100% methanol (pre-cooled to −20° C.) for 10 minutes at ambient temperature. Wells were washed with PBS and blocked with 5% dried milk (Marvel) in Tris-buffered saline (TBS, pH 7.4) at 37° C. for 30 minutes. Each well was washed three times with water containing 0.1% Tween 20. […] Primary antibody was removed and wells were washed with water containing 0.1% Tween 20. […] Europium emissions were counted on a Wallac, Victor2 counter (Perkin-Elmer, Bucks UK).

[3] = system: HT29 cells; experiment: Selectivity in cells for CHK1-dependent checkpoint abrogation versus cytotoxicity (SRB IC50/MIA IC50); format: cell-based; details: SRB IC50/MIA IC50, both in HT29 cells
Description: Assay 3: Assessment of Selectivity in Cells for CHK1-Dependent Checkpoint Abrogation versus Cytotoxicity
Compound cytotoxicity was assessed using a 96 hour sulforhodamine B assay (SRB, Sigma catalog number S9012). HT29 or SW620 cells were seeded at 1.6 to 3.2×10^3 cells per well in 96-well plates in a volume of 160 μL medium and allowed to attach for 36 hours prior to treatment. […] Cells were incubated for 96 hours (four doublings) at 37° C. in a humidified 5% CO2 environment and then fixed and stained with SRB.
The Activity Index (AI), a measure of the selectivity of the CHK1 inhibitor test compounds for effecting CHK1-dependent checkpoint abrogation versus cytotoxicity was calculated from the ratio of the CHK1 inhibitor cytotoxicity IC50 versus the MIA IC50 (i.e., Al=CHK1 inhibitor SRB IC50/MIA IC50), both measured in HT29 cells.

[4] = target: CHK1 (Homo sapiens (Human), UniProt O14757); experiment: CHK1 DELFIA assay as described in Collins et al., 2009a; format: biochemical
[5] = system: HT29 cells; experiment: Cellular efficacy in combination with SN38 (SRB potentiation); format: cell-based; details: SRB IC50/Potentiation IC50, 96 hour, SN38 at its IC50
Description: Assay 4: Cellular Efficacy in HT29 or SW620 Colon Carcinoma Cells in Combination with SN38 or Gemcitabine
HT29 or SW620 cells were seeded at 1.6 to 3.2×10^3 cells per well in 96-well plates in a volume of 160 μL medium and allowed to attach for 36 hours prior to treatment.
The Potentiation Index (PI) was calculated as a measure of the ability of the CHK1 inhibitor to enhance SN38 or gemcitabine cytotoxicity and was defined as the ratio of the Cytotoxicity IC50 of the CHK1 inhibitor alone versus the Potentiation IC50 of the CHK1 inhibitor combined with the genotoxic (i.e., PI=CHK1 inhibitor SRB IC50/Potentiation IC50).

CHK1, sequence (O14757 whole entry): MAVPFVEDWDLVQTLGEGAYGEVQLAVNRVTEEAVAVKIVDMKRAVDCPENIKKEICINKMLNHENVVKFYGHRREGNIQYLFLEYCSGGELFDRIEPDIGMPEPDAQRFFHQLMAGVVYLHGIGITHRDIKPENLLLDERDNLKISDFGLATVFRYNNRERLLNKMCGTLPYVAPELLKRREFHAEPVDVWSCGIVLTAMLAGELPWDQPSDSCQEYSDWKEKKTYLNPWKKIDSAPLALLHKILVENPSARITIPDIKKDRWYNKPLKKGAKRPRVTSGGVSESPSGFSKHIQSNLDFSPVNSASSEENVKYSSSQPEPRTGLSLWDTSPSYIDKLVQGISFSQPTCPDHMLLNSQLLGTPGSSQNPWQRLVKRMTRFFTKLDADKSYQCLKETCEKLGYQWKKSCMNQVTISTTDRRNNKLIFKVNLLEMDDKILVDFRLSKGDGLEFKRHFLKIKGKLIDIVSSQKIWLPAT

SMILES | Oral Bioavailability in Mouse [1] | bioavailability ([1]; female, Balb/c, mouse, in vivo, 10 mg/kg) | more potent than the next most potent compound (Y-154), MIA cellular potency [2] | Cellular Selectivity (Activity Index) [3] | IC50 [4] | Cell Efficacy + SN38 in HT29 cells (Potentiation Index) [5]
N#Cc1cnc(Nc2cc(NC[C@H]3CNCCO3)c(C(F)(F)F)cn2)cn1 [Compound 1, 5-[[4-[[(2R)-Morpholin-2-yl]methylamino]-5-(trifluoromethyl)-2-pyridyl]amino]pyrazine-2-carbonitrile] | 105% | 100% | approximately 3 fold | – | – | –
N#Cc1cnc(Nc2cc(NC[C@@H]3CNCCO3)c(C(F)(F)F)cn2)cn1 [Compound 2, 5-[[4-[[(2S)-Morpholin-2-yl]methylamino]-5-(trifluoromethyl)-2-pyridyl]amino]pyrazine-2-carbonitrile] | – | – | ~5 fold | – | – | –
N#Cc1cnc(Nc2cc(NCC3CNCCO3)c(C(=O)Nc3ccccc3)cn2)cn1 (stereo not shown) [Compound Y-102] | – | – | – | 4.6 fold | 20 nM | –
COCc1ccc(-c2cnc(Nc3cnc(C#N)cn3)cc2NC[C@@H]2CNCCO2)cc1 [Compound Y-148] | – | – | – | 4.4 fold | 13 nM | –
COCCOc1ccc(-c2cnc(Nc3cnc(C#N)cn3)cc2NC[C@@H]2CNCCO2)cc1 [Compound Y-149] | – | – | – | 3.5 fold | 10 nM | –
COCC#Cc1cnc(Nc2cnc(C#N)cn2)cc1NC[C@@H]1CNCCO1 [Compound Y-154] | – | – | – | 9.0 fold | 1 nM | 0.8 fold
COC(C)(C)C#Cc1cnc(Nc2cnc(C#N)cn2)cc1NC[C@@H]1CNCCO1 [Compound Y-155] | – | – | – | – | 5 nM | 0.9 fold
COCc1ccc(-c2cnc(Nc3cnc(C#N)cn3)cc2NC[C@H]2CNCCO2)cc1 [Compound Y-156] | – | – | – | 5.4 fold | 10 nM | 1.6 fold
COCCOc1ccc(-c2cnc(Nc3cnc(C#N)cn3)cc2NC[C@H]2CNCCO2)cc1 [Compound Y-157] | – | – | – | 6.3 fold | 15 nM | 2 fold
COCCCc1cnc(Nc2cnc(C#N)cn2)cc1NC[C@H]1CNCCO1 [Compound Y-159] | – | – | – | – | 23 nM | –
